Source: patent US11795170B2 (Genentech, Inc., priority 2016, dated 2023)

Experiments:
[1] = target: T1, isolated recombinant JAK1 kinase domain (Homo sapiens, UniProt P23458); assay: JAK1 enzyme assay (Caliper LabChip, peptide phosphorylation); assay type: biochemical; details: 1.5 nM JAK1, 25 μM ATP, 22° C., 30 minutes; Morrison tight binding model
T1 construct: The activity of the isolated recombinant JAK1 and JAK2 kinase domain was measured
Protocol: (§1) JAK Enzyme Assays were Carried Out as Follows:
(§2) The activity of the isolated recombinant JAK1 and JAK2 kinase domain was measured by monitoring phosphorylation of a peptide derived from JAK3 (Val-Ala-Leu-Val-Asp-Gly-Tyr-Phe-Arg-Leu-Thr-Thr, fluorescently labeled on the N-terminus with 5-carboxyfluorescein) using the Caliper LabChip® technology (Caliper Life Sciences, Hopkinton, Mass.). To determine inhibition constants (K), compounds were diluted serially in DMSO and added to 50 μL kinase reactions containing purified enzyme (1.5 nM JAK1, or 0.2 nM JAK2), 100 mM HEPES buffer (pH 7.2), 0.015% Brij-35, 1.5 μM peptide substrate, ATP (25 μM), 10 mM MgCl2, 4 mM DTT at a final DMSO concentration of 2%. Reactions were incubated at 22° C. in 384-well polypropylene microtiter plates for 30 minutes and then stopped by addition of 25 μL of an EDTA containing solution (100 mM HEPES buffer (pH 7.2), 0.015% Brij-35, 150 mM EDTA), resulting in a final EDTA concentration of 50 mM. After termination of the kinase reaction, the proportion of phosphorylated product was determined as a fraction of total peptide substrate using the Caliper LabChip® 3000 according to the manufacturer's specifications. Ki values were then determined using the Morrison tight binding model (Morrison, J. F., Biochim. Biophys. Acta. 185:269-296 (1969); William, J. W. and Morrison, J. F., Meth. Enzymol., 63:437-467 (1979)) modified for ATP-competitive inhibition [Ki=Ki,app/(1+[ATP]/Km,app)].

[2] = target: T2, isolated recombinant JAK2 kinase domain (Homo sapiens, UniProt O60674); assay: JAK2 enzyme assay (Caliper LabChip, peptide phosphorylation); assay type: biochemical; details: 0.2 nM JAK2, 25 μM ATP, 22° C., 30 minutes; Morrison tight binding model
T2 construct: The activity of the isolated recombinant JAK1 and JAK2 kinase domain was measured
Protocol: as §1, §2

[3] = tested on: JAK1-dependent STAT6 phosphorylation downstream of IL-13 stimulation; assay: JAK1 pathway assay in BEAS-2B cells (IL-13 stimulated pSTAT6, MSD); assay type: cell-based; details: BEAS-2B human bronchial epithelial cells, 1 hr compound incubation, IL-13 for 15 min; read-out: IL13-pSTAT6 BEAS2B IC50
Protocol: JAK1 Pathway Assay in Cell Lines was Carried Out as Follows:
Inhibitor potency (EC50) was determined in cell-based assays designed to measure JAK1 dependent STAT phosphorylation. As noted above, inhibition of IL-4, IL-13, and IL-9 signalling by blocking the Jak/Stat signaling pathway can alleviate asthmatic symptoms in pre-clinical lung inflammation models (Mathew et al., 2001, J Exp Med 193(9): 1087-1096; Kudlacz et. al., 2008, Eur J. Pharmacol 582(1-3): 154-161).
In one assay approach, TF-1 human erythroleukemia cells obtained from the American Type Culture Collection (ATCC; Manassas, Va.) were used to measure JAK1-dependent STAT6 phosphorylation downstream of IL-13 stimulation. Prior to use in the assays, TF-1 cells were starved of GM-CSF overnight in OptiMEM medium (Life Technologies, Grand Island, N.Y.) supplemented with 0.5% charcoal/dextran stripped fetal bovine serum (FBS), 0.1 mM non-essential amino acids (NEAA), and 1 mM sodium pyruvate. The assays were run in 384-well plates in serum-free OptiMEM medium using 300,000 cells per well. In a second assay approach, BEAS-2B human bronchial epithelial cells obtained from ATCC were plated at 100,000 cells per well of a 96-well plate one day prior to the experiment. The BEAS-2B assay was run in complete growth medium (bronchial epithelial basal medium plus bulletkit; Lonza; Basel, Switzerland).
Test compounds were serially diluted 1:2 in DMSO and then diluted 1:50 in medium just before use. Diluted compounds were added to the cells, for a final DMSO concentration of 0.2%, and incubated for 30 min (for the TF-1 assay) or 1 hr (for the BEAS-2B assay) at 37° C. Then, cells were stimulated with human recombinant cytokine at their respective EC90 concentrations, as previously determined for each individual lot. Cells were stimulated with IL-13 (R&D Systems, Minneapolis, Minn.) for 15 min at 37° C. The TF-1 cell reactions were stopped by the direct addition of 10× lysis buffer (Cell Signaling Technologies, Danvers, Mass.), whereas the BEAS-2B cell incubations were halted by the removal of medium and addition of 1× lysis buffer. The resultant samples were frozen in the plates at −80° C. Compound mediated inhibition of STAT6 phosphorylation was measured in the cell lysates using MesoScale Discovery (MSD) technology (Gaithersburg, Md.). EC50 values were determined as the concentration of compound required for 50% inhibition of STAT phosphorylation relative to that measured for the DMSO control.

T2 sequence (O60674 849-1124): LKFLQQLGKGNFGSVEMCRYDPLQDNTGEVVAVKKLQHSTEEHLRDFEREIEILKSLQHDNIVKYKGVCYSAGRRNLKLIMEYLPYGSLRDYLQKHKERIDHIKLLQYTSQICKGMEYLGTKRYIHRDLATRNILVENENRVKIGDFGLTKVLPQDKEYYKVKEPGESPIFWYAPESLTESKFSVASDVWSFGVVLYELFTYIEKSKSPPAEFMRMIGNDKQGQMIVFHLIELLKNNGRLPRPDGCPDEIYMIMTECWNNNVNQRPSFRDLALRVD
T1 sequence (P23458 875-1153): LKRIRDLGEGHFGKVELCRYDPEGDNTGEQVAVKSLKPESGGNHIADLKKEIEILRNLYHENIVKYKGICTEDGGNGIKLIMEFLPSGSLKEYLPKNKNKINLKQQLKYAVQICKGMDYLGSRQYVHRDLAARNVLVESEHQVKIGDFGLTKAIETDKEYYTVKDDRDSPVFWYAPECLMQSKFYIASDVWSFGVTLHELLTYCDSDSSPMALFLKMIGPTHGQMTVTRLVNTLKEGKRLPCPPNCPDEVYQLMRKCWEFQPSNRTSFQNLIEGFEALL

| Structure (SMILES) | Ki [1] | Ki [2] | IC50 [3] |
| --- | --- | --- | --- |
| CN(C1CCN(C(=O)Cn2cc(NC(=O)c3cnc4cccnn34)c(-c3cc(Cl)ccc3OC(F)F)n2)CC1)C1COC1 [Example 1, N-[3-[5-chloro-2-(difluoromethoxy)phenyl]-1-(2-[4-[methyl(oxetan-3-yl)amino]piperidin-1-yl]-2-oxoethyl)-1H-pyrazol-4-yl]imidazo[1,2-b]pyridazine-3-carboxamide] | 330 pM | 960 pM | 74000 pM |
| O=C(Nc1c[nH]nc1-c1cc(Cl)ccc1OC(F)F)c1cnc2ccc(Cl)nn12 [Example 2, 6-chloro-N-[3-[5-chloro-2-(difluoromethoxy)phenyl]-1H-pyrazol-4-yl]imidazo[1,2-b]pyridazine-3-carboxamide] | 1500 pM | 200 pM | 16000 pM |
| C#Cc1ccc2ncc(C(=O)Nc3c[nH]nc3-c3cc(Cl)ccc3OC(F)F)n2n1 [Example 3, N-[3-[5-chloro-2-(difluoromethoxy)phenyl]-1H-pyrazol-4-yl]-6-ethynyl-imidazo[1,2-b]pyridazine-3-carboxamide] | 290 pM | 76 pM | 21000 pM |
| O=C(Nc1cn(CC(=O)N2CCC(N3CCOCC3)CC2)nc1-c1cc(Cl)ccc1OC(F)F)c1cnc2cccnn12 [Example 4, N-[3-[5-chloro-2-(difluoromethoxy)phenyl]-1-[2-[4-(morpholin-4-yl)piperidin-1-yl]-2-oxoethyl]-1H-pyrazol-4-yl]imidazo[1,2-b]pyridazine-3-carboxamide] | 360 pM | 1200 pM | 20000 pM |
| N#CC1(CNC2CCN(C(=O)Cn3cc(NC(=O)c4cnc5cccnn45)c(-c4cc(Cl)ccc4OC(F)F)n3)CC2)CC1 [Example 5, N-[3-[5-chloro-2-(difluoromethoxy)phenyl]-1-[2-(4-[[(1-cyanocyclopropyl)-methyl]amino]piperidin-1-yl)-2-oxoethyl]-1H-pyrazol-4-yl]imidazo[1,2-b]pyridazine-3-carboxamide] | 560 pM | 2400 pM | 110000 pM |
| O=C(Nc1c[nH]nc1-c1cc(Cl)ccc1OC(F)F)c1cnc2cccnn12 [Example 6, N-[3-[5-chloro-2-(difluoromelhoxy)phenyl]-1H-pyrazol-4-yl]imidazo[1,2-b]pyridazine-3-carboxamide] | 180 pM | 63 pM | 4500 pM |
| CSc1ccc(OC(F)F)c(-c2n[nH]cc2NC(=O)c2cnc3cccnn23)c1 [Example 13, N-[3-[2-(difluoromethoxy)-5-(methylsulfanyl)phenyl]-1H-pyrazol-4-yl]imidazo[1,2-b]pyridazine-3-carboxamide] | 110 pM | 50 pM | 2900 pM |

Now from value to molecule:

| Ki [1] | Ki [2] | IC50 [3] | Structure (SMILES) |
| --- | --- | --- | --- |
| 720 pM | 530 pM | 34000 pM | NCCn1cc(NC(=O)c2cnc3cccnn23)c(-c2cc(Cl)ccc2OC(F)F)n1 [Example 7, N-[1-(2-aminoethyl)-3-[5-chloro-2-(difluoromethoxy)phenyl]-1H-pyrazol-4-yl]imidazo[1,2-b]pyridazine-3-carboxamide] |
| 280 pM | 140 pM | 6000 pM | Cn1cc(NC(=O)c2cnc3cccnn23)c(-c2cc(Cl)ccc2OC(F)F)n1 [Example 8, N-[3-[5-chloro-2-(difluoromethoxy)phenyl]-1-methyl-1H-pyrazol-4-yl]imidazo[1,2-b]pyridazine-3-carboxamide] |
| 290 pM | 120 pM | 11000 pM | O=C(Nc1c[nH]nc1-c1cc(SC2CC2)ccc1OC(F)F)c1cnc2cccnn12 [Example 9, N-[3-[5-(cyclopropylsulfanyl)-2-(difluoromethoxy)phenyl]-1H-pyrazol-4-yl]imidazo[1,2-b]pyridazine-3-carboxamide] |
| 410 pM | 260 pM | 7500 pM | CC(C)Sc1ccc(OC(F)F)c(-c2n[nH]cc2NC(=O)c2cnc3cccnn23)c1 [Example 10, N-[3-[2-(difluoromethoxy)-5-(propan-2-ylsulfanyl)phenyl]-1H-pyrazol-4-yl]imidazo[1,2-b]pyridazine-3-carboxamide] |
| 510 pM | 690 pM | 200000 pM | CSc1ccc(OC(F)F)c(-c2nn(CC(=O)N3CCC(CN4CCN(CC(=O)N(C)C)CC4)CC3)cc2NC(=O)c2cnc3cccnn23)c1 [Example 11] |
| 650 pM | 2000 pM | 150000 pM | O=C(Nc1cn(CC(=O)N2CCN(CCN3CCOCC3)CC2)nc1-c1cc(Cl)ccc1OC(F)F)c1cnc2cccnn12 [Example 12, N-[3-[5-chloro-2-(difluoromethoxy)phenyl]-1-(2-[4-[2-(morpholin-4-yl)ethyl]piperazin-1-yl]-2-oxoethyl)-1H-pyrazol-4-yl]imidazo[1,2-b]pyridazine-3-carboxamide] |
